Patent publication US20170240556A1, “BIFLUORODIOXALANE-AMINO-BENZIMIDAZOLE KINASE INHIBITORS FOR THE TREATMENT OF CANCER, AUTOIMMUNEINFLAMMATION AND CNS DISORDERS” (4SC DISCOVERY GMBH, priority 2012, published 2017)
Where two headings read alike, the source gives them in different places.

Columns and labels:
Test in all cases: Proliferation Assay
Format in all cases: cell-based
[1] = system: 22RV1 (prostate); conditions: Homo sapiens, 72 h, read-out: IC50 inhibition of cell growth
Procedure: (§1) For the determination of the inhibitory capacity of compounds of the present invention (in the following: “test compound(s)”) on cell growth, cancer cells were seeded into microtitre plates, treated with different concentrations of test compound or left untreated, and after 72 h the protein content was determined as an equivalent for the cell number.
(§2) Test compounds were dissolved in 100% DMSO and predilutions in cell culture medium were prepared with a final concentration of 0.1% DMSO in medium. The cell culture medium for dilution of the test compounds, consecutive culturing of cell lines and usage during the assay was a cell line specific medium as recommended by the cell line supplier and identical for all three applications mentioned above. After a 24-hour pre-growth period of the seeded cancer cells, the test compound containing media or medium containing 0.1% DMSO as control was added to the cells. The cells were allowed to grow at 37° C. for 72 hours. In addition, all experiments contained a few plates with cells that were processed for measurement immediately after the 24 hours recovery period. These plates contained information about the cell number that existed before treatment, at time zero, and served to calculate the cytotoxicity and/or growth inhibitory effects.
(§3) After treatment, cells were precipitated by addition of 10% TCA (trichloracetic acid). Prior to fixation, the media was aspirated. After an hour of incubation at 4° C. the plates were washed twice with 400 μl of deionized water. Cells were then stained with 100 μl of a 0.08% wt/v SRB (sulforhodamine). The plates were allowed to sit for at least 30 min and washed six times with 1% acetic acid to remove unbound staining agent. The plates were left to dry at room temperature and bound SRB was solubilized with 100 μl of 10 mM Tris base. Measurement of optical density was performed at 560 nm on a Victor 2 plate reader (Perkin Elmer, Germany).
(§4) One common way to express the effect of an anticancer agent is to measure cell viability and survival in the presence of the test agent as % Treated/Control×100. The relationship between the viability and dose is called a dose response curve. Those dose response curves were determined by using algorithms developed by Oncolead GmbH & Co. KG, Munich, Germany, that can be compared to commercial applications, e.g. XLfit™ (ID Business Solutions Ltd., Guildford, UK) algorithm “205”.

[2] = system: A431 (skin); conditions: Homo sapiens, A-431, 72 h, read-out: IC50 inhibition of cell growth
Procedure: as §1, §2, §3, §4

[3] = system: A549 (lung); conditions: Homo sapiens, 72 h, read-out: IC50 inhibition of cell growth
Procedure: as §1, §2, §3, §4

[4] = system: ACHN (kidney); conditions: Homo sapiens, 72 h, read-out: IC50 inhibition of cell growth
Procedure: as §1, §2, §3, §4

[5] = system: BT20 (breast); conditions: Homo sapiens, BT-20, 72 h, read-out: IC50 inhibition of cell growth
Procedure: as §1, §2, §3, §4

[6] = system: C33A (cervix); conditions: Homo sapiens, C-33-A, 72 h, read-out: IC50 inhibition of cell growth
Procedure: as §1, §2, §3, §4

[7] = system: CAKI1 (kidney); conditions: Homo sapiens, CAKI-1, 72 h, read-out: IC50 inhibition of cell growth
Procedure: as §1, §2, §3, §4

[8] = system: EFO21 (ovary); conditions: Homo sapiens, EFO-21, 72 h, read-out: IC50 inhibition of cell growth
Procedure: as §1, §2, §3, §4

[9] = system: HS578T (breast); conditions: Homo sapiens, Hs-578T, 72 h, read-out: IC50 inhibition of cell growth
Procedure: as §1, §2, §3, §4

[10] = system: HS729 (muscle); conditions: 72 h, read-out: IC50 inhibition of cell growth
Procedure: as §1, §2, §3, §4

[11] = system: HT1080 (connective tissue); conditions: Homo sapiens, HT-1080, 72 h, read-out: IC50 inhibition of cell growth
Procedure: as §1, §2, §3, §4

[12] = system: IGROV1 (ovary); conditions: Homo sapiens, IGROV-1, 72 h, read-out: IC50 inhibition of cell growth
Procedure: as §1, §2, §3, §4

[13] = system: J82 (bladder); conditions: 72 h, read-out: IC50 inhibition of cell growth
Procedure: as §1, §2, §3, §4

[14] = system: JIMT1 (breast); conditions: Homo sapiens, JIMT-1, 72 h, read-out: IC50 inhibition of cell growth
Procedure: as §1, §2, §3, §4

[15] = system: MT3 (breast); conditions: 72 h, read-out: IC50 inhibition of cell growth
Procedure: as §1, §2, §3, §4

[16] = system: OVCAR3 (ovary); conditions: Homo sapiens, OVCAR-3, 72 h, read-out: IC50 inhibition of cell growth
Procedure: as §1, §2, §3, §4

[17] = system: OVCAR4 (ovary); conditions: Homo sapiens, OVCAR-4, 72 h, read-out: IC50 inhibition of cell growth
Procedure: as §1, §2, §3, §4

[18] = system: RDES (bone); conditions: RD-ES, 72 h, read-out: IC50 inhibition of cell growth
Procedure: as §1, §2, §3, §4

[19] = system: SF268 (brain); conditions: Homo sapiens, SF-268, 72 h, read-out: IC50 inhibition of cell growth
Procedure: as §1, §2, §3, §4

[20] = system: SKBR3 (breast); conditions: Homo sapiens, SK-BR-3, 72 h, read-out: IC50 inhibition of cell growth
Procedure: as §1, §2, §3, §4

[21] = system: SKMEL5 (skin); conditions: Homo sapiens, SK-MEL-5, 72 h, read-out: IC50 inhibition of cell growth
Procedure: as §1, §2, §3, §4

[22] = system: SNB75 (brain); conditions: Homo sapiens, SNB-75, 72 h, read-out: IC50 inhibition of cell growth
Procedure: as §1, §2, §3, §4

[23] = system: SW620 (colon); conditions: Homo sapiens, SW-620, 72 h, read-out: IC50 inhibition of cell growth
Procedure: as §1, §2, §3, §4

[24] = system: TE671 (muscle); conditions: Homo sapiens, TE-671, 72 h, read-out: IC50 inhibition of cell growth
Procedure: as §1, §2, §3, §4

[25] = system: UMUC3 (bladder); conditions: Homo sapiens, 72 h, read-out: IC50 inhibition of cell growth
Procedure: as §1, §2, §3, §4

IC50 [1]: ≤ 1000 nM
IC50 [2]: ≤ 1000 nM
IC50 [3]: ≤ 1000 nM
IC50 [4]: ≤ 1000 nM
IC50 [5]: ≤ 1000 nM
IC50 [11]: ≤ 1000 nM
IC50 [16]: ≤ 1000 nM
IC50 [17]: ≤ 1000 nM
IC50 [20]: ≤ 1000 nM
IC50 ([21]; SKMEL5 (skin)): ≤ 1000 nM
IC50 ([21]; SKMELS (skin)): ≤ 100 nM
IC50 [23]: ≤ 1000 nM
Structure (SMILES): COc1cccc(C(=O)Nc2nc3cc4c(cc3[nH]2)OC(F)(F)O4)c1 [Compound 56, N-(2,2-difluoro-5H-[1,3]dioxolo[4′,5′:4,5]benzo[1,2-d]imidazol-6-yl)-3-methoxybenzamide]
IC50 [6]: ≤ 1000 nM
IC50 [7]: ≤ 1000 nM
IC50 [8]: ≤ 1000 nM
IC50 [9]: ≤ 1000 nM
IC50 [10]: ≤ 1000 nM
IC50 [12]: ≤ 1000 nM
IC50 [13]: ≤ 1000 nM
IC50 [14]: ≤ 1000 nM
IC50 [15]: ≤ 1000 nM
IC50 [18]: ≤ 1000 nM
IC50 [19]: ≤ 1000 nM
IC50 [22]: ≤ 1000 nM
IC50 [24]: ≤ 1000 nM
IC50 [25]: ≤ 1000 nM
